Test results taken from patent EP4711366A1, “PYRIMIDO MACROHETEROCYCLIC COMPOUND AS WEE1-YES DUAL-TARGET INHIBITOR AND USE THEREOF” (Mindrank AI Ltd., priority 2023, dated 2024).
pIC50: −log10 of the molar value.

What was measured:
[1] = target: Wee1 kinase (Homo sapiens, UniProt P30291); assay: WEE1 protein kinase inhibitory activity assay (ADP-GLO luminescence); format: biochemical; settings: for pIC50: Wee1 10 ng/well, ATP 10 µM, 3 h, 37 °C; for inhibition of the Weel target (in words): summary statement on the assay results
Wee1 kinase, sequence (P30291 whole entry): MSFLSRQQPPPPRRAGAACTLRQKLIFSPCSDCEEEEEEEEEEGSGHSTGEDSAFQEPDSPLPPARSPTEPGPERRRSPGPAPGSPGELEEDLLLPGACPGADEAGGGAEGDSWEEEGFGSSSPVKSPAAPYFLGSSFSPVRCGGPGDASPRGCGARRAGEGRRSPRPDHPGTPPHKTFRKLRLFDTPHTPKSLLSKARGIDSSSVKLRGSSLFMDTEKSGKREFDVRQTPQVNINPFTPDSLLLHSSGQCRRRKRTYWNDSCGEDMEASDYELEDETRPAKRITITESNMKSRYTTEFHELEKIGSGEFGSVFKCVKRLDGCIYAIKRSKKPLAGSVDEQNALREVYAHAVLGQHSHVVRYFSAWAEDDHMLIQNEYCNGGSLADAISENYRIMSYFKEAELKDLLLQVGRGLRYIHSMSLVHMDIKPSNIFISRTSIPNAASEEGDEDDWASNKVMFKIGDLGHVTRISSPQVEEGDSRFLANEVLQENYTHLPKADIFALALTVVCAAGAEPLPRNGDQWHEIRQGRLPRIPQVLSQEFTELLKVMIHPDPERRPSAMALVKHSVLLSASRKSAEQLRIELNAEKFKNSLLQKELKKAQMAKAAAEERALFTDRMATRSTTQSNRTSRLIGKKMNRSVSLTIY
Procedure: The influence of the compound MRANK-106 of the present disclosure on the kinase activity of Weel was assessed using an in vitro kinase reaction system.
Table 2-1. Information about reagents and consumables
① 1× kinase buffer: A 5× kinase buffer was diluted with ddH2O to make a 1× kinase buffer. Table 2-3. The reagent components added to the 1× kinase buffer
③ 5× enzyme working solution: The optimization of the enzyme concentration had been completed in previous work, and the concentration of the reagent used in the screening is shown in Table 2-4. A 5× enzyme working solution of the enzyme was formulated using the 1× kinase buffer.
④ Compound formulation: A 10 mM mother liquor was formulated using DMSO, aliquoted, and then stored at -20 °C. Immediately before use, the mother liquor was thawed, diluted with DMSO to 1 mM, serially diluted 4-fold to 10 concentration points, and then 40-fold diluted with the 1× kinase buffer to give a 2.5× working solution. Table 2-4. The experimental conditions for the kinase activity assay
After the above reagents were formulated and equilibrated to room temperature, 4 µL of the diluted solution of the compound to be tested and 2 µL of the formulated enzyme solution were added to reaction wells. After shaking and centrifugation, the plate was incubated at room temperature for 15 min, and 4 µL of the ATP solution was then added to start a kinase reaction. After 3 h of reaction at 37 °C, 10 µL of an ADP-GLO reagent was added. After thorough mixing, the mixture was left to react at room temperature for 40 min, and 20 µL of a detection reagent was then added. After 30 min of reaction at room temperature, the luminescence signals were detected using a SpectraMax L instrument. Two independent duplicate assays were performed. The inhibition rate of each well was calculated based on all activity wells and background signal wells, with an average calculated for duplicate wells. Meanwhile, the inhibition rate was plotted using the professional graphing and analysis software PRISM 9.0, and the IC50 was calculated.
The inhibition rates of the compounds to be tested against the kinase activity of Wee1 were calculated using the following formula: Inhibition rate% = (Lumvehicle−Lumcompound)/(Lumvehicle−Lumblank) × 100% [formula] • Lumcompound: the luminescence of the sample treatment groups • Lumvehicle: the luminescence of the solvent control group • Lumblank: the luminescence of the blank group

[2] = target: YES1 kinase (Homo sapiens, UniProt P07947); assay: YES1 protein kinase inhibitory activity assay (HTRF); format: biochemical; settings: for pIC50: HTRF, YES1 kinase, ATP 10 µM; for inhibition of the Yes target (in words): summary statement on the assay results
YES1 kinase, sequence (P07947 whole entry): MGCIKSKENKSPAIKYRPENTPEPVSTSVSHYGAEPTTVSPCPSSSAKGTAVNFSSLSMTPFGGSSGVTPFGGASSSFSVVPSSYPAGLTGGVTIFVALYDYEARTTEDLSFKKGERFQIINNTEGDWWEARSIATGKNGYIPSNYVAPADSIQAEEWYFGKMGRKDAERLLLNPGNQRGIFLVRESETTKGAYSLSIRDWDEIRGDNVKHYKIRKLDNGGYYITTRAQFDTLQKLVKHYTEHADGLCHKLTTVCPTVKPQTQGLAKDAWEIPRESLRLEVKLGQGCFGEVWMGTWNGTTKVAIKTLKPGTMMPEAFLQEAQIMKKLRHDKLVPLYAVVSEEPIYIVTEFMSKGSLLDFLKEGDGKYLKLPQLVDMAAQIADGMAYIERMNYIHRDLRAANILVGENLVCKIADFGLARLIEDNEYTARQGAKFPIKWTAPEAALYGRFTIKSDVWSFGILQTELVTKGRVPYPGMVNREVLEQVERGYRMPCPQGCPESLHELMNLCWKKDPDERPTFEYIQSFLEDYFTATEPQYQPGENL
Procedure: In this experiment, the capability of the compound MRANK-106 of the present disclosure to inhibit kinase activity was assessed by an HTRF method using a drug screening system based on the YES1 kinase.
Table 3-1. Information about reagents and consumables
The enzymatic activity conditions and HTRF system formulation are shown in Table 3-3; the experimental conditions for the kinase activity assay are shown in Table 3-4. Table 3-3. HTRF system formulation
Table 3-4. The experimental conditions for the kinase activity assay
The test compound MRANK-106 was dissolved in DMSO, and the solution was vortexed and shaken for thorough mixing. The solution was serially diluted 3-fold with DMSO, with the initial concentration being 503 nM.
① A 2× ATP/substrate solution and a 2× kinase solution were formulated using a kinase reaction buffer.
② 50 nL of the compound dilution was transferred to a 384 detection plate using Echo 655. After centrifugation, 2.5 µL of a 2× kinase solution was added to the 384 detection plate. The plate was centrifuged at 1000 rpm for 1 min and incubated at 25 °C for 10 min.
② 2.5 µL of the 2× substrate and ATP solution was added to the 384 detection plate, and the plate was centrifuged at 1000 rpm for 1 min and incubated at 25 °C for 60 min.
④ A 2× XL665 and antibody detection reagent was formulated using a detection buffer.
⑤ 5 µL of a kinase detection reagent was added to the detection plate, and the plate was incubated at 25 °C. The plate was centrifuged at 1000 rpm for 1 min and incubated at 25 °C for 1 h.
⑥ The fluorescence signals at 620 nm (Cryptate) and 665 nm (XL665) were read using a BMG high-throughput drug-screening multi-mode microplate reader.
With the reading of the negative control set as an inhibition rate of 0% and the reading of the positive control set as an inhibition rate of 100%, the inhibition rate of each test solution was calculated using the following formula: [formula] • Datapositive control: the average of the positive control well values • Datanegative control : the average of the negative control well values
The IC50 (half maximal inhibitory concentration) of the compound was obtained using the following nonlinear fitting formulas: Y = Bottom + (Top−Bottom)/(1+10^(∧)((LogIC50−X)*HillSlope)) [formula] • X: the log value of the compound concentration • Y: the inhibition rate (% inh) of the compound
The Z' factor calculation equation: Z′ = 1−3(SDmin+SDmax)/(AVEmax−AVEmin) [formula] where: • Min is the positive control Data value, and Max is the negative control DMSO Data value; • SD stands for standard deviation, and AVE stands for average.

| Compound | pIC50 [1] | pIC50 [2] | inhibition of the Weel target (in words) [1] | inhibition of the Yes target (in words) [2] |
| --- | --- | --- | --- | --- |
| Cc1cc(Nc2ncc3c(=O)n4n(c3n2)-c2cccc(n2)[C@@](C)(O)CCCCC4)ccc1OC1CCN(C)CC1 [Compound 29, (S)-12-hydroxy-12-methyl-2-((3-methyl-4-((1-methylpiperidin-4-yl)oxy)phenyl)amino)-7,8,9,10,11,12-hexahydro-5H-13,17-(azeno)pyrimido[4',5':3,4]pyrazolo[1,2-a][1,2]diazacyclotridecin-5-one] | 7.17 | – | – | – |
| Cc1cc(Nc2ncc3c(=O)n4n(c3n2)-c2cccc(n2)C(C)(O)CCC=CC4)ccc1OC1CCN(CC(F)(F)F)CC1 (stereo not drawn) [Compound 206, (Z)-12-hydroxy-12-methyl-2-((3-methyl-4-((1-(2,2,2-trifluoroethyl)piperidin-4-yl)oxy)phenyl)amino)-7,10,11,12-tetrahydro-5H-13,17-(azeno)pyrimido[4',5':3,4]pyrazolo[1,2-a][1,2]diazacyclotridecin-5-one] | – | 6.88 | – | – |
| CCOP1(=O)CCN(c2ccc(Nc3ncc4c(=O)n5n(c4n3)-c3cccc(n3)C(C)(O)CCC=CC5)cc2F)CC1 (stereo not drawn) [Compound 180, (Z)-2-((4-(4-ethoxy-4-oxido-1,4-azaphosphinan-1-yl)-3-fluorophenyl)amino)-12-hydroxy-12-methyl-7,10,11,12-tetrahydro-5H-13,17-(azeno)pyrimido[4',5':3,4]pyrazolo[1,2-a][1,2]diazacyclotridecin-5-one] | – | 7.28 | strongly inhibited | strongly inhibited |
| Cc1cc(Nc2ncc3c(=O)n4n(c3n2)-c2cccc(n2)C(C)(O)CCC=CC4)ccc1NC1CC2CCC(C1)N2C (single isomer, unassigned) [Compound 225A] | 7.69 | – | – | – |
| Cc1cc(Nc2ncc3c(=O)n4n(c3n2)-c2cccc(n2)C(C)(O)CC/C=C\C4)ccc1O[C@@H]1CCN(C)C1 (stereo partly drawn) [Compound 183, (R,Z)-12-hydroxy-12-methyl-2-((3-methyl-4-(((R)-1-methylpyrrolidin-3-yl)oxy)phenyl)amino)-7,10,11,12-tetrahydro-5H-13,17-(azeno)pyrimido[4',5':3,4]pyrazolo[1,2-a][1,2]diazacyclotridecin-5-one] | 7.79 | – | – | – |
| Cc1cc(Nc2ncc3c(=O)n4n(c3n2)-c2cccc(n2)C(C)(O)CCC=CC4)ccc1CN1CCN(C)CC1=O (stereo not drawn) [Compound 199, (Z)-12-hydroxy-12-methyl-2-((3-methyl-4-((4-methyl-2-oxopiperazin-1-yl)methyl)phenyl)amino)-7,10,11,12-tetrahydro-5H-13,17-(azeno)pyrimido[4',5':3,4]pyrazolo[1,2-a][1,2]diazacyclotridecin-5-one] | – | 7.23 | strongly inhibited | strongly inhibited |
| Cc1cc(Nc2ncc3c(=O)n4n(c3n2)-c2cccc(n2)[C@@](C)(O)CCC=CC4)ccc1OC1CCN(C)CC1 [Compound 134, (S,Z)-12-hydroxy-12-methyl-2-((3-methyl-4-((1-methylpiperidin-4-yl)oxy)phenyl)amino)-7,10,11,12-tetrahydro-5H-13,17-(azeno)pyrimido[4',5':3,4]pyrazolo[1,2-a][1,2]diazacyclotridecin-5-one] | 7.68 | 7.16 | strongly inhibited | strongly inhibited |
| Cc1cc(Nc2ncc3c(=O)n4n(c3n2)-c2cccc(n2)C(C)(O)CC/C=C\C4)ccc1O[C@H]1CCN(C)C1 (stereo partly drawn) [Compound 186, (R,Z)-12-hydroxy-12-methyl-2-((3-methyl-4-(((S)-1-methylpyrrolidin-3-yl)oxy)phenyl)amino)-7,10,11,12-tetrahydro-5H-13,17-(azeno)pyrimido[4',5':3,4]pyrazolo[1,2-a][1,2]diazacyclotridecin-5-one] | 7.73 | – | – | – |
| CN1CCN(C(=O)c2ccc(Nc3ncc4c(=O)n5n(c4n3)-c3cccc(n3)C(C)(O)CC/C=C\C5)cc2)CC1 [Compound 185, (R,Z)-12-hydroxy-12-methyl-2-((4-(4-methylpiperazine-1-carbonyl)phenyl)amino)-7,10,11,12-tetrahydro-5H-13,17-(azeno)pyrimido[4',5':3,4]pyrazolo[1,2-a][1,2]diazacyclotridecin-5-one] | – | 6.89 | – | – |
| CN1CC2CC(Oc3ccc(Nc4ncc5c(=O)n6n(c5n4)-c4cccc(n4)C(C)(O)CCC=CC6)cc3C(F)(F)F)CC2C1 (stereo not drawn) [Compound 223, (Z)-12-hydroxy-12-methyl-2-((4-((2-methyloctahydrocyclopenta[c]pyrrol-5-yl)oxy)-3-(trifluoromethyl)phenyl)amino)-7,10,11,12-tetrahydro-5H-13,17-(azeno)pyrimido[4',5':3,4]pyrazolo[1,2-a][1,2]diazacyclotridecin-5-one] | 7.73 | 7.66 | strongly inhibited | strongly inhibited |
| CCOP1(=O)CCN(c2ccc(Nc3ncc4c(=O)n5n(c4n3)-c3cccc(n3)C(C)(O)CCC=CC5)cc2)CC1 (stereo not drawn) [Compound 181, (Z)-2-((4-(4-ethoxy-4-oxido-1,4-azaphosphinan-1-yl)phenyl)amino)-12-hydroxy-12-methyl-7,10,11,12-tetrahydro-5H-13,17-(azeno)pyrimido[4',5':3,4]pyrazolo[1,2-a][1,2]diazacyclotridecin-5-one] | 7.48 | 6.93 | – | – |

Other lines, results leading:

| pIC50 [1] | pIC50 [2] | inhibition of the Weel target (in words) [1] | inhibition of the Yes target (in words) [2] | Compound |
| --- | --- | --- | --- | --- |
| – | 7.37 | – | – | CN(C)S(=O)(=O)c1ccc2c(c1)/C(=C/c1cc3c([nH]1)CCCC3)C(=O)N2 [SU6656] |
| 7.88 | – | – | – | Cc1cc(Nc2ncc3c(=O)n4n(c3n2)-c2cccc(n2)C(C)(O)CC/C=C\C4)ccc1CN1CCN(C)CC1 (single isomer, unassigned) [Compound 219A] |
| 8.27 | 6.46 | – | – | [2H]C([2H])([2H])N1CCC(Oc2ccc(Nc3ncc4c(=O)n5n(c4n3)-c3cccc(n3)[C@@](C)(O)CCC=CC5)cc2C)CC1 (single isomer, unassigned) [Compound 171B] |
| 7.89 | – | – | – | Cc1cc(Nc2ncc3c(=O)n4n(c3n2)-c2cccc(n2)C(C)(O)CC/C=C\C4)ccc1OC1CC2CN(C)CC2C1 (single isomer, unassigned) [Compound 224A] |
